B1: HAMLET (protein)
chain: KQFTKCELSQLLKDIDGYGGIALPELICTMFHTSGYDTQAIVENNESTEYGLFQISNKLWCKSSQVPQSRNICDISCDKFLDDDITDDIMCAKKILDIKGIDYWLAHKALCTEKLEQWLCEKL

Tests used:
A549 cells [1] = assay: Ca^2+ flux, Fluo-4 NW calcium assay, fluorometry; format: cell-based, human; conditions: for Ca^2+ flux, substance alone: HAMLET or sodium oleate alone, Fluo-4, mean of at least two experiments; for Ca^2+ flux, + oleate: peptide mixed with sodium oleate; for Ca^2+ flux, + oleate / Ca^2+ flux, - oleate: Fluo-4 fluorescence; for Ca^2+ flux, - oleate: peptide without sodium oleate
Method: (§1) To quantify the ion fluxes, fluorometry was measured in a plate reader (TECAN infinite F200, Tecan Group, Switzerland). For calcium fluxes measurement, the Fluo-4 NW calcium assay kit (Invitrogen) was used. For K^+ fluxes, the FluxOR™ potassium ion channel assay (Invitrogen) was used according to the manufacturer's instructions but component E was excluded. Briefly, cells were incubated with FluxOR™, which is a Tl^+ indicator. An increase in fluorescence signal corresponds to an influx of Tl^+, indicating opening of potassium channels, which was measured at 535 nm after excitation at 485 nm in the TECAN infinite plate reader. Given the driving force for K^+ flux across the plasma membrane this corresponds to K^+ efflux. Calcium and potassium fluxes was measured in 20 000 A549 cells plated in a 96-well plate. Sodium was measured in 100 000 Jurkat cells using the CoroNa Green Sodium Indicator (Invitrogen).

[2] = system: A549 lung carcinoma cells; assay: Cell morphology by phase holographic imaging and transmission DIC; format: cell-based, human
Method: For cellular uptake assays, A549 lung carcinoma cells were grown overnight on 8-well chamber slides (Nalge Nunc, Rochester, NY). Cells were incubated 1 hour with 35 μM biotinylated peptide with or without 175 μM sodium oleate (Sigma) in serum free RPMI media, followed by fixation (4% paraformaldehyde) and permeabilization (0.25% Triton X-100, 5% FCS in phosphate-buffered saline). Peptides were visualized by incubation with streptavidin-Alexa568 (Molecular Probes) and Wheat Germ Agglutinin (WGA) (Molecular Probes) was used to visualize plasma and nuclear membranes. Images were captured on a LSM510 META confocal microscope (Carl Zeiss, Jena, Germany) with pinhole settings corresponding to one airy unit. Quantification of fluorescence intensities was performed with the ImageJ software. The HoloMonitorTM M3 digital holographic microscope (Phase Holographic Imaging AB, Lund, Sweden) records 3D information of cells using interfering wave fronts induced by the exposure to a 0.8 mW HeNe laser (633 nm), resembling a Mach-Zender interferometer where the cells, placed in one of the interfering wave fronts, induce a phase difference between the two beams [26]-[28]. The interference pattern (hologram) is recorded on a digital sensor and is used to reconstruct the amplitude and phase of the object as described, [30]. […]

[3] = system: lung carcinoma or leukemia cells; assay: Tumor cell death (ATP level, PrestoBlue), cell line not given; format: cell-based, human; conditions: 3 hours
Method: A549 human lung carcinoma cell line and the Jurkat human acute T-cell leukemia cell line (obtained from ATCC, Manassas, VA, USA) were cultured in RPMI-1640 with non-essential amino acids (1∶100), 1 mM sodium pyruvate (all from PAA, Pasching, Austria), […] Gentamicin (Gibco, Paisley, UK) and 5% fetal calf serum (FCS) at 37°C, 5% CO2. Cells (5*10^5 cells/ml for A549 cells, 1*10^6 cells/ml for Jurkat cells) in suspension were incubated with either […] or peptide-oleate mixtures in serum-free RPMI-1640 at 37°C, 5% CO2. 5% FCS was added after 1 hour. Cell death was quantified by ATP level measurement (ATPlite Kit, PerkinElmer, Waltham, MA, Infinite F200, Tecan Group Ltd., Männedorf, Switzerland) and by using PrestoBlueTM Cell Viability Reagent (Invitrogen, Carlsbad, CA).

A549 cells [4] = assay: K^+ flux, FluxOR potassium ion channel assay (Tl^+ influx), fluorometry; format: cell-based, human; conditions: for K^+ flux, substance alone: HAMLET or sodium oleate alone, FluxOR, mean of at least two experiments; for K^+ flux, + oleate: peptide mixed with sodium oleate; for K^+ flux, + oleate / K^+ flux, - oleate: FluxOR fluorescence; for K^+ flux, - oleate: peptide without sodium oleate
Method: as §1

Jurkat cells = assay: Na^+ flux, CoroNa Green Sodium Indicator, fluorometry; format: cell-based, human; conditions: for Na^+ flux, substance alone: HAMLET or sodium oleate alone, CoroNa Green, mean of at least two experiments; for Na^+ flux, + oleate: peptide mixed with sodium oleate; for Na^+ flux, + oleate / Na^+ flux, - oleate: CoroNa Green fluorescence; for Na^+ flux, - oleate: peptide without sodium oleate
Method: as §1

[5] = Solubility of biotinylated peptide (remark); format: physicochemical; conditions: added at 12 µM instead of 105 uM
[6] = system: glioblastomas, papillomas and bladder cancer; conditions: ref [1]–[3]; cited from earlier work
Description: Healthy, differentiated cells are much less sensitive to HAMLET and toxic effects on healthy tissues have not been observed in tumor models.

[7] = Small angle X-ray scattering, state in solution; format: physicochemical; conditions: 2.5 and 6.5 mg/ml in phosphate-buffered saline, 15 °C
Description: Small angle X-ray scattering (SAXS) data for HAMLET were collected at the German Electron Synchrotron (DESY) of the EMBL Hamburg using the X33 SAXS camera, [19] located on a bending magnet (sector D) on the storage ring DORIS III. Pilatus 1 M pixel detector (67×420 mm^2) that operates in single photon counting mode was used. A sample - detector distance of 2.4 m which covers the range of momentum transfer 0.1<s<4.5 nm^−1 (s = 4π sin(q)/λ, where q is the scattering angle and λ = 0.15 nm is the X-ray wavelength) was utilized. The calibration of the s-axis was done by the scattering pattern of Silver-behenate salt (d-spacing 5.84 nm). For each sample measurement the scattering from the buffer was measured before and after. The average scattering for the before and after buffer measured was calculated and it is used for background subtraction for each sample. In order to assess and remove any concentration-dependant inter-particle effects for HAMLET, the protein concentrations 2.5 and 6.5 mg/ml in phosphate-buffered saline were used for the measurement. Automated sample-changing robot was used for injecting the protein as well as the buffer samples at the SAXS station X33 [20]. […]
By comparing the forward scattering from the reference solution of bovine serum albumin (BSA), the molecular mass of HAMLET was calculated as described in [18]. […]

Row | Molecule | Ca^2+ flux, substance alone (A549 cells [1]) | Cell morphology by transmission light DIC, oleate-free peptide or oleate alone ([2]; A549, 1 h) | Tumor cell killing in the absence of peptide ([3]; sodium oleate alone) | K^+ flux, substance alone (A549 cells [4]) | Na^+ flux, substance alone (Jurkat cells) | Ca^2+ flux, + oleate (A549 cells [1]) | Ca^2+ flux, - oleate (A549 cells [1]) | K^+ flux, + oleate (A549 cells [4]) | K^+ flux, - oleate (A549 cells [4]) | Na^+ flux, + oleate (Jurkat cells) | Na^+ flux, - oleate (Jurkat cells) | Solubility [5] | Morphological change by holographic imaging ([2]; adherent A549 cells, HAMLET or peptide-oleate mixture, images every 15 minutes) | Therapeutic efficacy in vivo [6] | Reduction of cell viability ([3]; HAMLET (positive control) or peptide mixed with sodium oleate, cell line not given) | Oligomeric state in solution ([7]; SAXS forward scattering vs BSA reference) | Protein aggregation (Guinier plot) ([7]; SAXS)
1 | CCCCCCCC/C=C\CCCCCCCC(=O)O [Sodium oleate, sodium oleate, reference compound] | not observed | remain as flat and extended | did not kill the tumor cells | significant K^+ fluxes | not observed |  |  |  |  |  |  |  |  |  |  |  | 
2 | AAKKILDIKGIDYWL [Peptide 10, 15-amino-acid peptide of α-lactalbumin library] |  |  |  |  |  | weaker Ca^2+ flux | weaker Ca^2+ flux | No | No | Weak Na^+ fluxes |  |  |  |  |  |  | 
3 | AKSSQVPQSRNIADI [Peptide 7, 15-amino-acid peptide of α-lactalbumin library] |  |  |  |  |  | No | No | No | No | No | No |  |  |  |  |  | 
4 | ATEKLEQWLAEKL [Peptide 12, C-terminal peptide of α-lactalbumin library] |  |  |  |  |  | No | No | No | No | No | No |  |  |  |  |  | 
5 | FHTSGYDTQAIVENN [Peptide 4, 15-amino-acid peptide of α-lactalbumin library] |  |  |  |  |  | No | No | No | No | No | No |  |  |  |  |  | 
6 | GLFQISNKLWAKSSQ [Peptide 6, 15-amino-acid peptide of α-lactalbumin library] |  |  |  |  |  | weaker Ca^2+ flux | No | No | No | Weak Na^+ fluxes |  | lower solubility |  |  |  |  | 
7 | IALPELIATMFHTSG [Peptide 3, 15-amino-acid peptide of α-lactalbumin library] |  |  |  |  |  | No | No | No | No | No | No |  |  |  |  |  | 
8 | IDYWLAHKALATEKL [Peptide 11, 15-amino-acid peptide of α-lactalbumin library] |  |  |  |  |  | increased Ca^2+ fluxes and Yes | increased Ca^2+ fluxes and Yes | triggered K^+ fluxes and Yes | triggered K^+ fluxes and Yes | No | No |  |  |  |  |  | 
9 | IVENNESTEYGLFQI [Peptide 5, 15-amino-acid peptide of α-lactalbumin library] |  |  |  |  |  | No | No | No | No | No | No |  |  |  |  |  | 
10 | KQFTKAELSQLLKDI [Peptide 1, 15-amino-acid peptide of α-lactalbumin library, numbered from the N-terminal] |  |  |  |  |  | No | No | triggered K^+ fluxes and Yes | triggered K^+ fluxes and Yes | No | No |  |  |  |  |  | 
11 | LDDDITDDIMAAKKI [Peptide 9, 15-amino-acid peptide of α-lactalbumin library] |  |  |  |  |  | No | No | No | No | No | No |  |  |  |  |  | 
12 | LLKDIDGYGGIALPE [Peptide 2, 15-amino-acid peptide of α-lactalbumin library] |  |  |  |  |  | No | No | No | No | No | No |  |  |  |  |  | 
13 | NIADISADKFLDDDI [Peptide 8, 15-amino-acid peptide of α-lactalbumin library] |  |  |  |  |  | No | No | No | No | No | No |  |  |  |  |  | 
14 | B1 | rapid and sustained |  |  | rapid and sustained | Na^+ fluxes |  |  |  |  |  |  |  | increase in cellular optical thickness and a reduction in adherent surface area after 30 minutes, followed by cell detachment at later time points | therapeutic efficacy | 90% | monomeric | no protein aggregation

Source: article PMC3531425, “Low Resolution Solution Structure of HAMLET and the Importance of Its Alpha-Domains in Tumoricidal Activity” (PLoS ONE, 2012)
